# According to patent US20080194701A1, “Bifunctional Enzyme with Y-Glutamylcysteine Synthetase and Glutathione Synthetase Activity and Uses Thereof” (priority 2004, published 2008):
# Like-named read-outs stand apart in the source and are kept apart here.
# Columns and labels:
# S. agalactiae γ-GCS-GS [1] = target: T1, S. agalactiae γ-GCS-GS (Streptococcus agalactiae serotype V, UniProt Q8DXM9); assay: γ-GCS activity assay based on ADP formation, S. agalactiae γ-GCS-GS; assay type: biochemical; design: corresponded to full-length S. agalactiae γ-GCS-GS with an N-terminal His8-tag; made in house; host or cells: E. coli SG13009 with pQE30-gshAB plus pREP4 or pRARE; settings: for Vmax: unit = 1 μmol product per hour
# T1 sequence (Q8DXM9 1-750): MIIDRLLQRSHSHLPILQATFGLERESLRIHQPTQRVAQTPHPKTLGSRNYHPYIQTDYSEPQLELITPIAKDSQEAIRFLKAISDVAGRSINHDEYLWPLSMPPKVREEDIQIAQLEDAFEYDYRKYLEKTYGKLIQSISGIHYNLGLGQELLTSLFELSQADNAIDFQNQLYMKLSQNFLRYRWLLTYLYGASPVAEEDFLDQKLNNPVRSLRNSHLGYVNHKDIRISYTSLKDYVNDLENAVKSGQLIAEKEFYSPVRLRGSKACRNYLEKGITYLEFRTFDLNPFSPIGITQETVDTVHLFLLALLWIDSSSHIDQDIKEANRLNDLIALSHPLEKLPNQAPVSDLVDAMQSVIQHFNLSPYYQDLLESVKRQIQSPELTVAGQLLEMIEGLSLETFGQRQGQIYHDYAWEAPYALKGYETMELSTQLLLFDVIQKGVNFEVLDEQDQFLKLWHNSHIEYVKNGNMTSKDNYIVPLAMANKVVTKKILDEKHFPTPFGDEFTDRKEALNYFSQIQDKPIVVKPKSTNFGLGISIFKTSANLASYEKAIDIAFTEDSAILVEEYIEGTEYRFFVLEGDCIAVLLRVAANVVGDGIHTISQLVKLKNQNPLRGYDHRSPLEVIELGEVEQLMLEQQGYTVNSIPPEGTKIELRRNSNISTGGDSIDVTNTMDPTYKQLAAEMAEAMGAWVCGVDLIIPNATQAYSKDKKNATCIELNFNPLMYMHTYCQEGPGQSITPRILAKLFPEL
# Experimental: In Table 1, a unit was defined as the amount of enzyme activity required to catalyze the formation of 1 μmol of product per hour. Specific activity was shown as units per mg protein. Activity was determined at 37° C. based on ADP formation in reaction mixtures containing L-glutamate and L-cysteine and using pyruvate kinase and lactate dehydrogenase to couple ADP formation to NADH oxidation, which was monitored at 340 nm.
# Exp. Purif. 13, 268-276 (1998).
# At set time points ranging from one to 30 minutes, 5 μl aliquots were removed and assayed for residual enzyme activity using the standard γ-GCS assay based on ADP formation.
# E. faecalis γ-GCS-GS = E. faecalis γ-GCS-GS (Enterococcus faecalis, UniProt Q82ZG8); assay: γ-GCS activity of E. faecalis γ-GCS-GS
# S. mutans γ-GCS-GS = S. mutans γ-GCS-GS (Streptococcus mutans serotype c, UniProt Q8DW15); assay: γ-GCS activity of S. mutans γ-GCS-GS
# Excerpt: 3′ and 5′ […] 3′ and introduced unique Bgl II and Hind III sites (underlined), respectively.
# E. coli γ-GCS = E. coli γ-GCS (Escherichia coli, UniProt P0A6W9); settings: cited from earlier work; for Km: substrate Km; for Vmax: unit = 1 μmol product per hour
# Human γ-GCSc = target: T2, Human γ-GCSc (Homo sapiens, UniProt P48506); settings: catalytic subunit only, cited from earlier work; for Km: substrate Km
# T2 sequence (P48506 1-637): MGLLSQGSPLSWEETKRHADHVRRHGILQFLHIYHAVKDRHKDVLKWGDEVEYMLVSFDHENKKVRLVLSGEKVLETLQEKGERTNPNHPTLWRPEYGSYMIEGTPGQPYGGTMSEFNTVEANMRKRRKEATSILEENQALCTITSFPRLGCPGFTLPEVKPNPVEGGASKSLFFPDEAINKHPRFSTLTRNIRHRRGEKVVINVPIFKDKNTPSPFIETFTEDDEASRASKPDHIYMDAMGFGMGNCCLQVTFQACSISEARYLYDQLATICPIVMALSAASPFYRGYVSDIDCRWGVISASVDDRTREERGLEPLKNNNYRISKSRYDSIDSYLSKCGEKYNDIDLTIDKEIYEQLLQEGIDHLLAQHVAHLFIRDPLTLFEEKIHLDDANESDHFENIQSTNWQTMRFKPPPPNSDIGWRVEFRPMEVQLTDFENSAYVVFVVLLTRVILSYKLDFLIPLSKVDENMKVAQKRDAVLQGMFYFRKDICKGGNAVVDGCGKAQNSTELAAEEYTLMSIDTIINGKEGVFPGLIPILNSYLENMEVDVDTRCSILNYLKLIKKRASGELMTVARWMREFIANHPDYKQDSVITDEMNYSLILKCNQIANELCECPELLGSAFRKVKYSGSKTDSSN
# Human γ-GCS = target: T3, Human γ-GCS (Homo sapiens, UniProt P48506); settings: cited from earlier work; for Km: substrate Km; for Vmax: unit = 1 μmol product per hour; for Ki: read-out: Ki
# T3 sequence (P48506 1-637): T2 sequence (P48506 1-637)
# T3 sequence (P48507 1-274 partner): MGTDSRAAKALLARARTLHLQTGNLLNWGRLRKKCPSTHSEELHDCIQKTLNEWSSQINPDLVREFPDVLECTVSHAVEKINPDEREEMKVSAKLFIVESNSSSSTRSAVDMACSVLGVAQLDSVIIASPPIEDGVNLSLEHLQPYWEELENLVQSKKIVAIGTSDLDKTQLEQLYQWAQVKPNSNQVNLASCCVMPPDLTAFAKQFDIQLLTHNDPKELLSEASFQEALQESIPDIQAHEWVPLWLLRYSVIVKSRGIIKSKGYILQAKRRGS
# Rat GS = target: T4, Rat GS (Rattus norvegicus, UniProt P46413); settings: cited from earlier work
# T4 sequence (P46413 1-474): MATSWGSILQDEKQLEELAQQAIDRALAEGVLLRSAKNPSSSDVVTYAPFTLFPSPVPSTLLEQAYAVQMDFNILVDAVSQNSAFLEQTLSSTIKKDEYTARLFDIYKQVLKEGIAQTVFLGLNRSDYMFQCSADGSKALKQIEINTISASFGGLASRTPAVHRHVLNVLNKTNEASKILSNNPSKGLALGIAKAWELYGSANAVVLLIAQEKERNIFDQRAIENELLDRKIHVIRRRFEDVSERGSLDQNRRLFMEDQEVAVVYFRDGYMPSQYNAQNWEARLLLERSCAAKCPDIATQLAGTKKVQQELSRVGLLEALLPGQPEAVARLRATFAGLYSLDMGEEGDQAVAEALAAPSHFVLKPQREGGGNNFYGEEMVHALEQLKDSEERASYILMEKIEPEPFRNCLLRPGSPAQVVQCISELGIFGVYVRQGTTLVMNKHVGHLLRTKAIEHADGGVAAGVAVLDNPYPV
# Human GS = target: T5, Human GS (Homo sapiens, UniProt P48637); settings: cited from earlier work
# T5 sequence (P48637 1-474): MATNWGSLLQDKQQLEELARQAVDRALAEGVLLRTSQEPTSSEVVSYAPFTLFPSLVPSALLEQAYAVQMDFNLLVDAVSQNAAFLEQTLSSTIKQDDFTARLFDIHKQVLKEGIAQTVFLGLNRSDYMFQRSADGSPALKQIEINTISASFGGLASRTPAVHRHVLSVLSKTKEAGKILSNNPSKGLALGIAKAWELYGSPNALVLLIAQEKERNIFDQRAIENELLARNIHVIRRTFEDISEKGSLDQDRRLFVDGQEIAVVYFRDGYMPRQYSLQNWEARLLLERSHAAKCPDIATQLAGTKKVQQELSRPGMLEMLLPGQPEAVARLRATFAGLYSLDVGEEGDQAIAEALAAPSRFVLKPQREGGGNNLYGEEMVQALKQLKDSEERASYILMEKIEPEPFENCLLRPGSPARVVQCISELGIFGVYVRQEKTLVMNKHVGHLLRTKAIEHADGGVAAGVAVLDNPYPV
# E. coli GS = E. coli GS (Escherichia coli, UniProt P04425); settings: cited from earlier work; for Km: substrate Km
# N[C@@H](CS)C(=O)O = assay: purified protein, by the assay type; settings: other: substrate Km, γ-GCS activity
# Experimental: Expression yielded less soluble protein than seen with S. agalactiae and E. faecalis γ-GCS-GS, but the enzyme was nonetheless isolated in about 10% purity as judged by Coomasie blue stained SDS-PAGE gels. Although both γ-GCS and GS activities were determined to be present, only the γ-GCS activity has been characterized to date in terms of substrate affinities.
# S. agalactiae γ-GCS-GS [2] = target: T1, S. agalactiae γ-GCS-GS; assay: GS activity assay based on ADP formation, S. agalactiae γ-GCS-GS; settings: GSH concentrations of up to 100 mM
# Experimental: Transformed cells were grown, induced, and harvested by centrifugation, and were then broken using a French pressure cell. […] The column was equilibrated with 50 mM Tris HCl buffer, pH 7.4, containing 5 mM L-glutamate, 5 mM MgCl2, and 5 mM β-mercaptoethanol, and the high-speed supernatant was loaded. After washing the column with equilibration buffer to remove proteins lacking a His-tag, the expressed His8-tagged protein was eluted using the same buffer supplemented with 200 mM imidazole. Amount of γ-GCS activity was determined as described in Example 2. […] It was observed that the purified enzyme catalyzed both the γ-GCS and the GS reactions. Since the GS-specific activity was higher than the specific activity for any known GS enzyme, it was apparent that the expressed 85 kDa S. agalactiae protein (rather than a trace impurity), accounted for the observed GS activity. Using the pREP4 auxiliary plasmid instead of the pRARE plasmid gave somewhat lower yields (325 mg total protein vs. 442 mg protein using pRARE) but the specific activities of the γ-GCS activity (870 units/mg) and GS activities (1143 units/mg) were similar.
# Results for E. coli GS are from H. Gushima et al. J. Appl. Biochem. 5, 210-218 (1983). Results for rat GS are from J. L. Luo et al. Biochem. Biophys. Res. Commun. 275, 577-581 (2000). Results for human GS are from R. Njalsson et al. Biochem. Biophys. Res. Commun. 289, 80-84 (2001) and R. Njalsson et al. Biochem. J. 349, 275-279 (2000).
# [3] = MSO also pre-incubated with MgATP, absence of L-glutamate
# Sequence of S. mutans γ-GCS-GS (Q8DW15 whole entry): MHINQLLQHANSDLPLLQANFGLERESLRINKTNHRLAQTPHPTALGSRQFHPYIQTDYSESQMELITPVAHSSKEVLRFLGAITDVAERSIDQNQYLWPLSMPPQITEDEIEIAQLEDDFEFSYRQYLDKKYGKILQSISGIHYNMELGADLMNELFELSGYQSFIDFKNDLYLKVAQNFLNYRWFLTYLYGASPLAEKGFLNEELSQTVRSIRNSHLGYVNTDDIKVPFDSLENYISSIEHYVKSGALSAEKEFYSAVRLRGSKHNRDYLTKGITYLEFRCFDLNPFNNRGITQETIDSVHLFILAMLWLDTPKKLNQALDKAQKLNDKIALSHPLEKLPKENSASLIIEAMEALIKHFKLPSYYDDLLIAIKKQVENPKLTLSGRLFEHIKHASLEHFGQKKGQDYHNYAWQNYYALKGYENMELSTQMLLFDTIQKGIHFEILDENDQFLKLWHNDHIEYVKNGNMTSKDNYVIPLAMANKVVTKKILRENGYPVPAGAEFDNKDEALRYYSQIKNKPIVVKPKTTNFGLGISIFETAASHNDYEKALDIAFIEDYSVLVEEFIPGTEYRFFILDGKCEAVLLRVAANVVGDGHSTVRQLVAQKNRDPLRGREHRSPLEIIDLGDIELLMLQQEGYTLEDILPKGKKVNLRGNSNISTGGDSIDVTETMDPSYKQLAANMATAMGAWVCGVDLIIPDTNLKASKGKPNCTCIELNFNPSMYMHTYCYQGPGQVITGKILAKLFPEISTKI
# Sequence of E. coli γ-GCS (P0A6W9 whole entry): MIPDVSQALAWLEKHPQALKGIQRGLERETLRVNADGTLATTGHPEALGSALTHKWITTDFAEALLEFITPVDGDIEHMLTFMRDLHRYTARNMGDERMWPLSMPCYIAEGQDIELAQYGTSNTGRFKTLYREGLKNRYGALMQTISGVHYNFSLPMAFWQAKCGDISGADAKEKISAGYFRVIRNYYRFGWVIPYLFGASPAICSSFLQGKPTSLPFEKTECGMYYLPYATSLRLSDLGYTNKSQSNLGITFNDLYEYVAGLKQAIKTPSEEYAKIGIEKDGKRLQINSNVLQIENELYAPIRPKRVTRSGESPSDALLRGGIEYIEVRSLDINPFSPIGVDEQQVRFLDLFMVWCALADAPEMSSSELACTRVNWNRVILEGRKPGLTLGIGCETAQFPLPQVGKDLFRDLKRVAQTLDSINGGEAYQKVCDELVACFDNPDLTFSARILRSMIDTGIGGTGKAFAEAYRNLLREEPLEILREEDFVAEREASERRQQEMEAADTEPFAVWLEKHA
# Sequence of E. coli GS (P04425 whole entry): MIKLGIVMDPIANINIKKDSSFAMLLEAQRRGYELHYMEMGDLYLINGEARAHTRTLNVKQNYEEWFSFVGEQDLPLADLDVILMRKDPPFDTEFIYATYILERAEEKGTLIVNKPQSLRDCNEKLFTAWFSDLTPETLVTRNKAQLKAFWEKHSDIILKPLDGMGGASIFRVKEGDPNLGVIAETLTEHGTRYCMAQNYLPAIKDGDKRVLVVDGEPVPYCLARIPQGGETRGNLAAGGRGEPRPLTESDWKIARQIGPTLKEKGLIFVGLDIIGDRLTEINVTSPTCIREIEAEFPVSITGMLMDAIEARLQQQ
compound,measurement,setting,value
"NC(CCCP(=O)(O)O)C(=O)O (racemic) [D,L-2-amino-5-phosphonovaleric acid]",Ki,S. agalactiae γ-GCS-GS [1],> 100 mM
same,inhibition of the γ-GCS activity (in words),S. agalactiae γ-GCS-GS [1],not effective
N[C@@H](CCC(=O)O)C(=O)O [L-glutamate],Km,"E. faecalis γ-GCS-GS; substrate Km, γ-GCS activity",79000 ± 14000 µM
same,Km,"S. mutans γ-GCS-GS; substrate Km, γ-GCS activity",17000 ± 1000 µM
same,Km,E. coli γ-GCS,1900 ± 200 µM
same,Vmax,E. coli γ-GCS,3170 ± 125 units/mg
same,Vmax,Human γ-GCSc,~1250 units/mg
same,Km,Human γ-GCSc,3200 ± 100 µM
same,Km,S. agalactiae γ-GCS-GS [1],23000 ± 2000 µM
same,Vmax,S. agalactiae γ-GCS-GS [1]; γ-GCS activity,1341 ± 145 units/mg
same,Km,Human γ-GCS,1900 ± 200 µM
same,Vmax,Human γ-GCS,~1500 units/mg
"NC(CCP(=O)(O)O)C(=O)O (racemic) [D,L-2-amino-4-phosphonobutyric acid]",Ki,S. agalactiae γ-GCS-GS [1],13 mM
same,inhibition of the γ-GCS activity (in words),S. agalactiae γ-GCS-GS [1]; [3],moderately good inhibitors
"NCCSSCCN [Cystamine, reference compound]",Ki,E. coli γ-GCS,no inhibition
same,inhibition of γ-GCS activity,S. agalactiae γ-GCS-GS [1],no reproducibly measurable inhibition
same,Ki,"S. agalactiae γ-GCS-GS [1]; inhibition of γ-GCS activity, initial reversible binding",no inhibition
same,Ki,Human γ-GCS,2 mM
"CP(=O)(O)CCC(N)C(=O)O.N (centres unmarked) [glufosinate (ammonium salt), glufosinate ammonium]",inhibition of the γ-GCS activity (in words),S. agalactiae γ-GCS-GS [1]; [3],moderately good inhibitors
same,Ki,"S. agalactiae γ-GCS-GS [1]; inhibition of γ-GCS activity, initial reversible binding, read-out: Ki",29 mM
N[C@@H](CS)C(=O)O [L-cysteine],Vmax,E. coli γ-GCS,3590 ± 200 units/mg
same,Vmax,Human γ-GCSc,~1250 units/mg
same,Km,Human γ-GCSc,130 ± 10 µM
same,Km,Human γ-GCS,100 ± 20 µM
same,Vmax,Human γ-GCS,~1500 units/mg
CC[C@H](N)C(=O)O [L-α-aminobutyrate],Km,E. coli γ-GCS,3900 ± 400 µM
same,Vmax,E. coli γ-GCS,2970 ± 120 units/mg
same,Vmax,Human γ-GCSc,~1250 units/mg
same,Km,Human γ-GCSc,1700 µM
same,Km,"S. agalactiae γ-GCS-GS [1]; substrate Km, γ-GCS activity",8300 ± 1000 µM
same,Vmax,S. agalactiae γ-GCS-GS [1]; γ-GCS activity,1148 ± 73 units/mg
same,Km,Human γ-GCS,1300 µM
same,Vmax,Human γ-GCS,~1500 units/mg
NCC(=O)O [glycine],Vmax,Rat GS,678 units/mg
same,Km,Rat GS; substrate Km,913 µM
same,Vmax,Human GS,361 ± 84 units/mg
same,Km,Human GS; substrate Km,1300 ± 300 µM
same,Vmax,E. coli GS,650 units/mg
same,Km,E. coli GS,2000 µM
N[C@@H](CCC(=O)N[C@@H](CS)C(=O)O)C(=O)O [L-γ-glutamyl-L-cysteine],Vmax,E. coli GS,650 units/mg
same,Km,E. coli GS,2600 µM
S. mutans γ-GCS-GS (Streptococcus mutans UA159),Km,N[C@@H](CS)C(=O)O,144 ± 4 µM
"N[C@@H](CCC(=O)N[C@@H](CS)C(=O)NCC(=O)O)C(=O)O [GSH, L-γ-glutamyl-L-cysteinylglycine, reference compound]",Ki,E. faecalis γ-GCS-GS,25.1 ± 0.8 mM
same,inhibition of GS activity,S. agalactiae γ-GCS-GS [2],does not significantly inhibit
same,Ki,S. mutans γ-GCS-GS,67 ± 0.8 mM
same,Ki,E. coli γ-GCS; read-out: Ki,2.7 mM
same,Ki,S. agalactiae γ-GCS-GS [1],no inhibition
same,Ki,Human γ-GCS,5.8 mM
"CS(=N)(=O)CC[C@H](N)C(=O)O (mixture of isomers) [L-Methionine-S,R-sulfoximine]",Ki,S. agalactiae γ-GCS-GS [1],> 100 mM
same,inhibition of the γ-GCS activity (in words),S. agalactiae γ-GCS-GS [1]; [3],no significant inhibition
